# Laboratory results published in PMC6736568, “Discovery of Novel Anti-cryptosporidial Activities From Natural Products by in vitro High-Throughput Phenotypic Screening” (Frontiers in Microbiology, 2019).
# Where two headings read alike, the source gives them in different places.
# Tests used:
# Cryptosporidium parvum = test: qRT-PCR assay of the growth of C. parvum in vitro in HCT-8 host cells (primary and secondary screening, EC50); format: cell-based; details: for Inhibition (%): primary screening at 10 uM; for % Inhibition (3.3 uM): secondary screening at 3.3 uM
# [1] = primary screening at 10 uM, treated vs control
# [2] = primary screening at 10 uM, from Hs18S ΔCT
SMILES,Hs18S ΔCT (HCT-8 host cells (Hs18S); [1]),Inhibition (%) (Cryptosporidium parvum),Cytotoxicity (%) (HCT-8 host cells (Hs18S); [2]),% Inhibition (3.3 uM) (Cryptosporidium parvum),Hs18S ΔCT (HCT-8 host cells (Hs18S)),Cytotoxicity (%) (HCT-8 host cells (Hs18S); 10 µM),"inhibition at 10 µM (Cryptosporidium parvum; Cryptosporidium parvum, HCT-8)"
C[C@]12CCC(=O)C=C1CC[C@@H]1[C@@H]2C(=O)C[C@@]2(C)[C@H]1CC[C@]2(O)C(=O)CO [CORTISONE],-0.17,-10.93%,–,–,–,–,–
COC(=O)[C@H]1[C@H]2C[C@H]3c4[nH]c5ccccc5c4CCN3C[C@@H]2CC[C@@H]1O [CORYNANTHINE],-0.61,-58.95%,-53.1%,–,–,–,–
N[C@@H]1CONC1=O [CYCLOSERINE (D)],-0.38,-10.45%,-30.0%,–,–,–,–
COc1cc2c(cc1OC)Cc1cc(OC)c(OC)cc1Cc1cc(OC)c(OC)cc1C2 [CYCLOVERATRYLENE],-0.03,83.81%,-2.2%,-85%,–,–,–
OC[C@H]1O[C@H](O[C@H]2[C@H](O)[C@@H](O)[C@H](O)O[C@@H]2CO)[C@H](O)[C@@H](O)[C@@H]1O [D-(+)-MALTOSE],-0.19,55.12%,–,–,–,–,–
COc1ccc(-c2cc(=O)c3c(O)c(OC)c(OC)c(OC)c3o2)cc1OC [DEMETHYLNOBILETIN],-0.06,91.41%,-4.6%,29%,–,–,–
CC(=O)O[C@@H]1C[C@H]2C(C)(C)C(=O)C=C[C@]2(C)[C@H]2CC[C@]3(C)C(=CC(=O)O[C@H]3c3ccoc3)[C@@]21C [DEOXYGEDUNIN],0.24,28.62%,15.4%,–,–,–,–
CC(=O)O[C@H]1C[C@@H](OC(C)=O)C(C)(C)[C@@H]2C[C@@H](OC(C)=O)[C@@]3(C)C4=CC(=O)O[C@@H](c5ccoc5)[C@]4(C)CC[C@@H]3[C@@]12C [DEOXYKHIVORIN],0.11,27.34%,7.7%,–,–,–,–
Cl.c1ccc2c(c1)CN1CCCC1=N2 [DEOXYPEGANINE HYDROCHLORIDE],–,36.29%,–,–,-0.06,-4.6,–
C=C[C@@]1(C)CC(=O)[C@@]2(O)[C@](C)(O1)[C@@H](O)[C@@H](O)C1C(C)(C)CC[C@H](O)[C@@]12C (some centres unmarked) [DESACETYLCOLFORSIN],0.22,-6.53%,14.3%,–,–,–,–
"CC(=O)[C@H]1CC[C@H]2[C@@H]3CCC4C[C@H](O)CC[C@]4(C)[C@H]3C[C@H](O)[C@]12C (stereo partly drawn) [DIHYDROXY (3alpha,12alpha)PREGNAN-20-ONE]",-0.37,-32.59%,-29.0%,–,–,–,–
COC(=O)/C(C)=C\CC12OC(C)(C)C3CC(C=C4C(=O)c5c(c(CCC(C)(C)Cl)c6c(c5OC)C5CC(C)(CCC5=C(C)C)O6)OC431)C2=O (centres unmarked) [DIMETHYL GAMBOGINATE],2.30,93.45%,79.7%,47%,–,–,–
CS(C)(=O)=O [DIMETHYLSULFONE],0.90,65.78%,46.5%,61%,–,–,–
N[C@@H](CSCSC[C@H](N)C(=O)O)C(=O)O [DJENKOLIC ACID],0.00,23.33%,0.2%,–,–,–,–
C[C@]12CC[C@H](O)C[C@@H]1CC[C@@H]1[C@@H]2CC[C@]2(C)C(=O)CC[C@@H]12 [EPIANDROSTERONE],–,–,–,–,-0.05,–,-36%
O=C(O[C@@H]1Cc2c(O)cc(O)cc2O[C@@H]1c1ccc(O)c(O)c1)c1cc(O)c(O)c(O)c1 [EPICATECHIN MONOGALLATE],0.38,6.24%,23.1%,–,–,–,–
O=C(O[C@@H]1Cc2c(O)cc(O)cc2O[C@@H]1c1cc(O)c(O)c(O)c1)c1cc(O)c(O)c(O)c1 [EPIGALLOCATECHIN-3-MONOGALLATE],-0.19,10.02%,-14.2%,–,–,–,–
O=C(O)c1cc(O)c(=O)c2c(O)c(O)cc([C@H]3Oc4cc(O)cc(O)c4C[C@H]3O)c2c1 [EPITHEAFLAVIC ACID],–,-9.36%,–,–,–,6.9%,–
CC(=O)O[C@@H]1CC2C(C)(C)C(=O)C3OC3[C@]2(C)C2CC[C@@]3(C)[C@H](c4ccoc4)OC(=O)C4OC43[C@@]21C (some centres unmarked) [EPOXYGEDUNIN],-0.46,29.04%,-37.3%,–,–,–,–
CC(=O)O[C@H]1CC[C@@]2(C)C(=CC=C3[C@@H]4CC[C@H]([C@H](C)/C=C/[C@H](C)C(C)C)[C@@]4(C)CC[C@@H]32)C1 [ERGOSTEROL ACETATE],0.06,-10.68%,3.7%,–,–,–,–
O=C[C@H](O)[C@H](O)CO [ERYTHROSE],0.23,57.20%,14.6%,–,–,–,–
O.O=c1ccc2cc(O[C@@H]3OC(CO)[C@@H](O)[C@@H](O)C3O)c(O)cc2o1 (some centres unmarked) [ESCULIN MONOHYDRATE],-0.42,10.62%,-34.0%,–,–,–,–
COc1c(-c2ccccc2)oc2cc(O)cc(O)c2c1=O [GALANGIN 3-O-METHYL ETHER],–,-5.04%,–,–,–,-45.3%,–
COc1cc(OC)c2c(=O)c(OC)c(-c3ccccc3)oc2c1 [GALANGIN TRIMETHYL ETHER],0.13,-18.22%,8.8%,–,–,–,–
NC(=O)CC[C@H](N)C(=O)O [GLUTAMINE (D)],-0.16,2.46%,-11.8%,–,–,–,–
"CC1(C)[C@@H](O[C@H]2O[C@H](C(=O)O)[C@@H](O)[C@H](O)[C@H]2O[C@@H]2O[C@H](C(=O)O)[C@@H](O)[C@H](O)[C@H]2O)CC[C@]2(C)[C@H]3C(=O)C=C4[C@@H]5C[C@@](C)(C(=O)O)CC[C@]5(C)CC[C@@]4(C)[C@]3(C)CC[C@@H]12.N [GLYCYRRHIZIC ACID, AMMONIUM SALT]",-0.52,1.41%,-43.6%,–,–,–,–
O=c1c(O)c(-c2ccc(O)c(O)c2)oc2c(O[C@@H]3O[C@H](CO)[C@@H](O)[C@H](O)[C@H]3O)c(O)cc(O)c12 [GOSSYPIN],-0.07,-22.05%,-4.8%,–,–,–,–
